# Test system: 628569-122-R-J1-PDC complex spheroid viability
# Assay: Anticancer human tumor 628569-122-R-J1-PDC patient-derived head and neck squamous carcinoma cell line growth inhibition [CLK]
# Conditions: for IC50: curve of first compound; for viability, T/C: stronger effect = lower value
# How it was run: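 Multi-cell-type spheroids combined patient-derived tumor cells with HUVEC endothelial cells and human mesenchymal stem cells. Paired agents were dosed in half-log steps down from about clinical Cmax, or from 10 microM where Cmax was unknown.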
# [1] = second compound 0.0316 µM, first compound 0.0316 µM
# [2] = second compound 0.0316 µM, first compound 0.1 µM
# [3] = second compound 0.0316 µM, first compound 0.316 µM
# [4] = second compound 0.0316 µM, first compound 1 µM
# [5] = second compound 0.0316 µM, first compound 3.16 µM
# [6] = second compound 0.0316 µM, first compound 10 µM
# [7] = second compound 0.1 µM, first compound 0.0316 µM
# [8] = second compound 0.1 µM, first compound 0.1 µM
# [9] = second compound 0.1 µM, first compound 0.316 µM
# [10] = second compound 0.1 µM, first compound 1 µM
# [11] = second compound 0.1 µM, first compound 3.16 µM
# [12] = second compound 0.1 µM, first compound 10 µM
# [13] = second compound 0.316 µM, first compound 0.0316 µM
# [14] = second compound 0.316 µM, first compound 0.1 µM
# [15] = second compound 0.316 µM, first compound 0.316 µM
# [16] = second compound 0.316 µM, first compound 1 µM
# [17] = second compound 0.316 µM, first compound 3.16 µM
# [18] = second compound 0.316 µM, first compound 10 µM
# [19] = second compound 1 µM, first compound 0.0316 µM
# [20] = second compound 1 µM, first compound 0.1 µM
# [21] = second compound 1 µM, first compound 0.316 µM
# [22] = second compound 1 µM, first compound 1 µM
# [23] = second compound 1 µM, first compound 3.16 µM
# [24] = second compound 1 µM, first compound 10 µM
# [25] = second compound 3.16 µM, first compound 0.0316 µM
# [26] = second compound 3.16 µM, first compound 0.1 µM
# [27] = second compound 3.16 µM, first compound 0.316 µM
# [28] = second compound 3.16 µM, first compound 1 µM
# [29] = second compound 3.16 µM, first compound 3.16 µM
# [30] = second compound 3.16 µM, first compound 10 µM
# [31] = second compound 10 µM, first compound 0.0316 µM
# [32] = second compound 10 µM, first compound 0.1 µM
# [33] = second compound 10 µM, first compound 0.316 µM
# [34] = second compound 10 µM, first compound 1 µM
# [35] = second compound 10 µM, first compound 3.16 µM
# [36] = second compound 10 µM, first compound 10 µM
# 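Also: spheroids exposed to agents for seven days before readout.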
# 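For viability, T/C in this document: 100% = DMSO vehicle control viability.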
compound,measurement,setting,value
C=CC(=O)N1CCN(c2nc(=O)n(-c3c(C)ccnc3C(C)C)c3nc(-c4c(O)cccc4F)c(F)cc23)C(C)C1 (stereo unspecified) + CNC(=O)c1ccc(Nc2nc(OC3CCCC3)c3c(-c4ccc5nc(C)oc5c4)c[nH]c3n2)c(OC)c1,IC50,second compound 0.0316 µM,> 10000 nM
same,IC50,second compound 0.1 µM,> 10000 nM
same,IC50,second compound 0.316 µM,> 10000 nM
same,IC50,second compound 1 µM,< 31.6 nM
same,IC50,second compound 3.16 µM,< 31.6 nM
same,IC50,second compound 10 µM,< 31.6 nM
same,"viability, T/C",[1],80%
same,"viability, T/C",[2],105%
same,"viability, T/C",[3],84.1%
same,"viability, T/C",[4],105%
same,"viability, T/C",[5],127%
same,"viability, T/C",[6],125%
same,"viability, T/C",[7],61.9%
same,"viability, T/C",[8],64.2%
same,"viability, T/C",[9],60%
same,"viability, T/C",[10],59.7%
same,"viability, T/C",[11],75.8%
same,"viability, T/C",[12],81.1%
same,"viability, T/C",[13],52.6%
same,"viability, T/C",[14],59.9%
same,"viability, T/C",[15],60.2%
same,"viability, T/C",[16],62.9%
same,"viability, T/C",[17],63.7%
same,"viability, T/C",[18],67%
same,"viability, T/C",[19],49.9%
same,"viability, T/C",[20],47%
same,"viability, T/C",[21],47.1%
same,"viability, T/C",[22],58.4%
same,"viability, T/C",[23],59.6%
same,"viability, T/C",[24],59.8%
same,"viability, T/C",[25],39.7%
same,"viability, T/C",[26],45.9%
same,"viability, T/C",[27],51.5%
same,"viability, T/C",[28],50.4%
same,"viability, T/C",[29],54.7%
same,"viability, T/C",[30],53%
same,"viability, T/C",[31],48.6%
same,"viability, T/C",[32],37.7%
same,"viability, T/C",[33],47.1%
same,"viability, T/C",[34],44.9%
same,"viability, T/C",[35],44.7%
same,"viability, T/C",[36],44%
CC(Nc1ccc2c(c1)OCCn1cc(N3C(=O)OCC3C(F)F)nc1-2)C(N)=O (stereo unspecified) + CN1CCN(c2cc(C(=O)Nc3cc4cc(-c5cnn(C)c5)ccc4cn3)ccn2)CC1,IC50,second compound 0.0316 µM,432 nM
same,IC50,second compound 0.1 µM,32 nM
same,IC50,second compound 0.316 µM,< 31.6 nM
same,IC50,second compound 1 µM,< 31.6 nM
same,IC50,second compound 3.16 µM,< 31.6 nM
same,IC50,second compound 10 µM,< 31.6 nM
same,"viability, T/C",[1],76.2%
same,"viability, T/C",[2],71.2%
same,"viability, T/C",[3],50.8%
same,"viability, T/C",[4],41%
same,"viability, T/C",[5],28.9%
same,"viability, T/C",[6],23.2%
same,"viability, T/C",[7],51.8%
same,"viability, T/C",[8],44%
same,"viability, T/C",[9],36.4%
same,"viability, T/C",[10],41.6%
same,"viability, T/C",[11],23.2%
same,"viability, T/C",[12],17.8%
same,"viability, T/C",[13],26.9%
same,"viability, T/C",[14],20.5%
same,"viability, T/C",[15],13.6%
same,"viability, T/C",[16],13.5%
same,"viability, T/C",[17],8.04%
same,"viability, T/C",[18],5.9%
same,"viability, T/C",[19],7.59%
same,"viability, T/C",[20],8.7%
same,"viability, T/C",[21],6.98%
same,"viability, T/C",[22],8.35%
same,"viability, T/C",[23],6.35%
same,"viability, T/C",[24],5.58%
same,"viability, T/C",[25],7.77%
same,"viability, T/C",[26],7.38%
same,"viability, T/C",[27],6.16%
same,"viability, T/C",[28],6.78%
same,"viability, T/C",[29],7.18%
same,"viability, T/C",[30],6.1%
same,"viability, T/C",[31],6.06%
same,"viability, T/C",[32],4.09%
same,"viability, T/C",[33],2.84%
same,"viability, T/C",[34],6.87%
same,"viability, T/C",[35],3.27%
same,"viability, T/C",[36],2.51%
COc1cccc2c1C(=O)c1c(O)c3c(c(O)c1C2=O)CC(O)(C(=O)CO)CC3OC1CC(N)C(O)C(C)O1 (stereo unspecified) + CNC(=O)c1ccc(Nc2nc(OC3CCCC3)c3c(-c4ccc5nc(C)oc5c4)c[nH]c3n2)c(OC)c1,IC50,second compound 0.0316 µM,479 nM
same,IC50,second compound 0.1 µM,446 nM
same,IC50,second compound 0.316 µM,373 nM
same,IC50,second compound 1 µM,31.6 nM
same,IC50,second compound 3.16 µM,< 31.6 nM
same,IC50,second compound 10 µM,< 31.6 nM
same,"viability, T/C",[1],65.1%
same,"viability, T/C",[2],56.3%
same,"viability, T/C",[3],88.3%
same,"viability, T/C",[4],12.9%
same,"viability, T/C",[5],19.5%
same,"viability, T/C",[6],11.4%
same,"viability, T/C",[7],49.7%
same,"viability, T/C",[8],62.8%
same,"viability, T/C",[9],91.8%
same,"viability, T/C",[10],5.99%
same,"viability, T/C",[11],11.4%
same,"viability, T/C",[12],5.02%
same,"viability, T/C",[13],47%
same,"viability, T/C",[14],47.1%
same,"viability, T/C",[15],75.8%
same,"viability, T/C",[16],9.78%
same,"viability, T/C",[17],17.6%
same,"viability, T/C",[18],4.53%
same,"viability, T/C",[19],39.9%
same,"viability, T/C",[20],47.9%
same,"viability, T/C",[21],58.3%
same,"viability, T/C",[22],7.25%
same,"viability, T/C",[23],14.1%
same,"viability, T/C",[24],5.15%
same,"viability, T/C",[25],43.2%
same,"viability, T/C",[26],52.5%
same,"viability, T/C",[27],50.3%
same,"viability, T/C",[28],9.3%
same,"viability, T/C",[29],10.3%
same,"viability, T/C",[30],5.46%
same,"viability, T/C",[31],41%
same,"viability, T/C",[32],48.8%
same,"viability, T/C",[33],47.9%
same,"viability, T/C",[34],6.06%
same,"viability, T/C",[35],11.8%
same,"viability, T/C",[36],6.29%

# Source: PubChem BioAssay AID2060611 (Molecular Pharmacology Branch, DTP, NCI, 2025)
